Where a SMILES comes first, the peptide text is derived from it. Where no end group is shown, it is not given here. [ ]: non-standard residue; d: D form. dPhe(3-Cl) = N[C@H](Cc1cccc(Cl)c1)C(=O)O; d2Thi = N[C@H](Cc1cccs1)C(=O)O; Nle = CCCC[C@H](N)C(=O)O

This series can be described thus: Pharmacokinetics in rats after intravenous bolus injection (systemic clearance). Conditions: rat, plasma, 0.2 mg FB/kg, adult male Sprague-Dawley rats, i.v. bolus, dose 0.20 mg FB/kg, read-out: CL (ml/kg/min) Average. Format: in vivo. The procedure: Pharmacokinetic (PK) parameters of illustrative agonists of the GLP-2 receptor were determined in adult male Sprague-Dawley rats post intravenous bolus injection of compounds at doses of 0.1-1.0 mg/kg. Three or four doubly cannulated animals per compound were dosed via jugular vein, blood samples were collected at several intervals via carotid artery, and plasma samples were prepared from whole blood using K2EDTA as anticoagulant. Subsequent bioanalysis of samples included compound extraction and plasma concentration determination using standard LC/MS/MS methods. Analyte concentration was calculated from internal standard normalized peak area and calibration curves.
For calculation of PK parameters the compound concentration-time curves were analyzed with the noncompartmental data analysis software package PK Solutions 2.0™ (Summit Research Services, Montrose Colo.). The systemic clearance per kg body weight (CL) was calculated as the dose per kg body weight divided by the AUC extrapolated to infinity based on trapezoid calculation (AUC∞). Values reported are the arithmetic mean and standard deviation from the number of animals used for each compound as indicated on Table 3.
On to `CCCC[C@H](NC(=O)[C@H](CCC(=O)O)NC(=O)[C@H](CC(=O)O)NC(=O)[C@H](CO)NC(=O)[C@H](Cc1ccccc1)NC(=O)[C@H](CO)NC(=O)CNC(=O)[C@H](CC(=O)O)NC(=O)CNC(=O)[C@@H](N)Cc1c[nH]cn1)C(=O)N[C@H](Cc1cccc(Cl)c1)C(=O)N[C@H](C(=O)N[C@H](C(=O)N[C@@H](CC(C)C)C(=O)N[C@@H](CC(=O)O)C(=O)N[C@@H](Cc1ccccc1)C(=O)N[C@@H](CC(C)C)C(=O)N[C@@H](C)C(=O)N[C@@H](C)C(=O)N[C@@H](CCCNC(=N)N)C(=O)N[C@@H](CC(=O)O)C(=O)N[C@@H](Cc1ccccc1)C(=O)N[C@H](C(=O)N[C@@H](CC(N)=O)C(=O)N[C@@H](Cc1c[nH]c2ccccc12)C(=O)N[C@@H](CC(C)C)C(=O)N[C@H](C(=O)N[C@@H](CCC(N)=O)C(=O)N[C@H](C(=O)N[C@@H](CCCCN)C(=O)N[C@H](C(=O)N[C@H](C(=O)N[C@@H](CC(=O)O)C(N)=O)[C@@H](C)O)[C@@H](C)CC)[C@@H](C)O)[C@@H](C)CC)[C@@H](C)CC)[C@@H](C)CC)[C@@H](C)O` [Compound 66, [Gly2,Nle10,D-3-Cpa11,Phe16] hGLP-2(1-33)-NH2] (H-HGDGSFSDE[Nle][dPhe(3-Cl)]TILDFLAARDFINWLIQTKITD-NH2), for which the clearance was 0.12 mL/kg/min.
On to `CCCC[C@H](NC(=O)[C@H](CCC(=O)O)NC(=O)[C@H](CC(=O)O)NC(=O)[C@H](CO)NC(=O)[C@H](Cc1ccccc1)NC(=O)[C@H](CO)NC(=O)CNC(=O)[C@H](CC(=O)O)NC(=O)CNC(=O)[C@@H](N)Cc1c[nH]cn1)C(=O)N[C@H](Cc1cccs1)C(=O)N[C@H](C(=O)N[C@H](C(=O)N[C@@H](CC(C)C)C(=O)N[C@@H](CC(=O)O)C(=O)N[C@@H](Cc1ccc(O)cc1)C(=O)N[C@@H](CC(C)C)C(=O)N[C@@H](C)C(=O)N[C@@H](C)C(=O)N[C@@H](CCCNC(=N)N)C(=O)N[C@@H](CC(=O)O)C(=O)N[C@@H](Cc1ccccc1)C(=O)N[C@H](C(=O)N[C@@H](CC(N)=O)C(=O)N[C@@H](Cc1c[nH]c2ccccc12)C(=O)N[C@@H](CC(C)C)C(=O)N[C@H](C(=O)N[C@@H](CCC(N)=O)C(=O)N[C@H](C(=O)N[C@@H](CCCCN)C(N)=O)[C@@H](C)O)[C@@H](C)CC)[C@@H](C)CC)[C@@H](C)CC)[C@@H](C)O` [Compound 50, [Gly2,Nle10,D-Thi11,Tyr16] hGLP-2 (1-30)-NH2] (H-HGDGSFSDE[Nle][d2Thi]TILDYLAARDFINWLIQTK-NH2), for which the clearance amounted to 0.52 mL/kg/min.
To “HGEGTFSSELATILDALAARDFIAWLIATKITDKKKKKK-NH2 [ZP-1848, reference compound]” belongs 2.4 mL/kg/min.
As for `CCCC[C@H](NC(=O)[C@H](CCC(=O)O)NC(=O)[C@H](CC(=O)O)NC(=O)[C@H](CO)NC(=O)[C@H](Cc1ccccc1)NC(=O)[C@H](CO)NC(=O)CNC(=O)[C@H](CC(=O)O)NC(=O)CNC(=O)[C@@H](N)Cc1c[nH]cn1)C(=O)N[C@H](Cc1ccc(O)cc1)C(=O)N[C@H](C(=O)N[C@H](C(=O)N[C@@H](CC(C)C)C(=O)N[C@@H](CC(=O)O)C(=O)N[C@@H](CC(N)=O)C(=O)N[C@@H](CC(C)C)C(=O)N[C@@H](C)C(=O)N[C@@H](C)C(=O)N[C@@H](CCCNC(=N)N)C(=O)N[C@@H](CC(=O)O)C(=O)N[C@@H](Cc1ccccc1)C(=O)N[C@H](C(=O)N[C@@H](CC(N)=O)C(=O)N[C@@H](Cc1c[nH]c2ccccc12)C(=O)N[C@@H](CC(C)C)C(=O)N[C@H](C(=O)N[C@@H](CCC(N)=O)C(=O)N[C@H](C(=O)N[C@@H](CCCCN)C(N)=O)[C@@H](C)O)[C@@H](C)CC)[C@@H](C)CC)[C@@H](C)CC)[C@@H](C)O` [Compound 39, [Gly2,Nle10,D-Tyr11] hGLP-2 (1-30)-NH2] (H-HGDGSFSDE[Nle][dY]TILDNLAARDFINWLIQTK-NH2), the clearance stood at 4.9 mL/kg/min.

For the origin of these results see patent publication US8580918B2, “Peptidic GLP-2 agonists” (Ferring B.V., priority 2009, dated 2013).
